Counter-ions that a name gives are not always drawn. Like-named read-outs stand apart in the source and are kept apart here.
Legend:
[1] = target: T1, μ receptor (Cavia porcellus, UniProt A0ACM8Q262); test: Radio receptor binding to μ sites (3H-DAGO); conditions: guinea pig brain homogenate without cerebellum, 25° C., 40 min, pH 7.4
T1 construct: 3H-DAGO (DAMGO) displacement
Procedure: Radio receptor binding to μ and k sites is performed on fresh guinea pig brain homogenate prepared according to Kosterlitz. (1981)
(§1) […] brain without cerebellum is homogenized in 50 mM, Tris-buffer (pH 7.4 at 0° C.) and centrifuged at 49,000×g×10 min. The pellet is then resuspended in the same buffer, incubated at 37° C. for 45 min. and centrifuged again.
(§2) 1.9 ml of the final homogenate (1:100 in Tris-pH 7.4, 0° C.) is used for the binding assay.
Binding to μ sites (Magnan J., 1982):
^3 H [D-Ala^2, MePhe^4, Gly-ol^5 ] Enkephalin (^3 H-DAGO), an enkephalin analogue that binds selectively to μ receptor, is added to the biological substrate and incubated at 25° C. for 40 min., filtered through Whatman GF-C and washed with ice-cold Tris-buffer. The filters are then dried, solubilized in Filtercount and the radioactivity monitored. Non specific binding is determined in the presence of 10^-6 M Naloxone.
For the calculation of the kinetic parameters of the binding of labelled and unlabelled ligands, the equilibrium dissociation constant (KD), and the inhibition constant (Ki) and the maximum number of binding sites (B max) are determined from saturation curves and competition experiments (Hill 1910; Scatchard 1949; Cheng and Prusoff 1973; Gillan et al. 1980).
(§3) A concentration of radioligant near KD is used in the binding assays evaluating our compounds.

[2] = target: T2, k (Kappa) opioid receptor (Cavia porcellus, UniProt P41144); test: Radio receptor binding to k sites (tritiated Ethylketocyclazocine); parameters: species or system guinea pig
T2 construct: fresh guinea pig brain homogenate; from tissue; host or cells: guinea pig whole brain without cerebellum, washed membrane homogenate
T2 sequence (P41144 whole entry): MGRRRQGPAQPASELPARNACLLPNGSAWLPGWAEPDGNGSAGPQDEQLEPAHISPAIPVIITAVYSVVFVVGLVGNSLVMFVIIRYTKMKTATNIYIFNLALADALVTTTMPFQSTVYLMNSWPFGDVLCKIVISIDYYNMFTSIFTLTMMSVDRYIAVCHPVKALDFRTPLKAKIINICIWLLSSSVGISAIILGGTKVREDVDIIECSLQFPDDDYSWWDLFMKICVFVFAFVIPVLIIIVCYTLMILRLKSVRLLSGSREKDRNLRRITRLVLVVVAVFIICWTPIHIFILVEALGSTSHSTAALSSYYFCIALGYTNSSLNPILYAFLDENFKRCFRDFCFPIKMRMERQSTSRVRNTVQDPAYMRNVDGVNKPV
Procedure: Radio receptor binding to μ and k sites is performed on fresh guinea pig brain homogenate prepared according to Kosterlitz.
as §1, §2
The binding of tritiated Ethylketocyclazocine to brain homogenate is measured in the presence of 100 nanomolar D-Ala-D-LeuEnkephalin (DADLE) and 100 nanomolar DAGO, added to saturate the δ and μ opioid receptors respectively.
Final homogenate with solutions of the cold ligand and of the labelled ligand is incubated for 40 min at 25° C., filtered through Whatman GF/C glass filter discs and washed.
The radioactivity bound to the filters is counted by liquid scintillation spectrophotometry.
as §3

[3] = test system: Mouse tail flick; test: Mouse tail flick test; type: in vivo, mouse (male Charles River); conditions: s.c., 30 min after dosing, mice doubling the initial reaction time; for ED50: Mus musculus, sc, 0.5 h, read-out: IN VIVO TESTS - ED50, Mouse tail flick
Procedure: (§4) Inhibition of contraction in electrically stimulated rabbit vas deferens indicate Kappa receptor agonism.
Tail-flick test (Modified from the procedure published by D'Amour et al., J. Pharm. Exptl. Ther. 72, 74/1941)
Male Charles River mice, average weight 26 g, are used. Selection is carried out before beginning of experiments: only mice whose reaction time is less than 8 sec are used. They are randomly distributed into groups of 10 and dosed with compounds under test, with positive and negative controls being included.
Compounds under test are administered subcutaneously in isotonic saline in a volume of 20 ml.Kg^-1. 30 min later mice are placed again under heat source (Socrel apparatus) and reaction time is recorded.
Analgesic activity of the test compound is expressed as the percent number of mice doubling the initial time within a group. [formula]

[4] = test system: Mouse p-phenylquinone writhing; test: Mouse p-phenylquinone writhing test; type: in vivo, mouse (male Charles River); conditions: p-phenylquinone 0.02% i.p. 20 min after dosing, animals completely protected in 8 min; for ED50: Mus musculus, sc, read-out: IN VIVO TESTS - ED50, Mouse p-phenylquinone writhing; for IN VIVO TESTS - ED50, Mouse p-phenylquinone writhing: s.c.
Procedure: as §4
Writhing test (According to Siegmund et al., Proc. Soc. Exptl. Biol. 95, 729/1957)
Male Charles River mice, average weight 26 g, are randomly distributed into groups of 10 and are dosed subcutaneously with compounds under test, dissolved in isotonic saline (20 ml.Kg^-1). The experiments are carried out in the presence of positive and negative controls. 20 min after the mice are injected intraperitoneally with p-phenylquinone 0.02%, 10 ml.Kg^-1, maintained at 37° C. in a water bath. The mice are placed in a perspex compartmented observation box and observed for a period of 8 min after injection of p-phenylquinone. The dose-response curve is obtained by basing observation on the all or none response.

T1 sequence (A0ACM8Q262 1-400): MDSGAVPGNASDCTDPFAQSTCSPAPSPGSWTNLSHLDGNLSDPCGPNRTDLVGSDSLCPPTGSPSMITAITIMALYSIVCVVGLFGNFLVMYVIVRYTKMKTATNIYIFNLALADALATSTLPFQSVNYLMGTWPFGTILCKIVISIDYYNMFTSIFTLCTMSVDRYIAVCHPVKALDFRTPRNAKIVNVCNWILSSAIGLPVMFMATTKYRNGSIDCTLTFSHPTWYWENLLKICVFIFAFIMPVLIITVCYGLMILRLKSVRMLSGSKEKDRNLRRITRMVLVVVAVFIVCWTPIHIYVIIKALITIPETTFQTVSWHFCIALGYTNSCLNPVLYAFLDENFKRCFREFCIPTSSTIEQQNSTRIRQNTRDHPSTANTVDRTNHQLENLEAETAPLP

SMILES | Ki [1] [µM] | Ki [2] [µM] | ED50 [3] [mg/kg] | ED50 [4] [mg/kg] | Ki ([2]; guinea pig brain homogenate without cerebellum, tritiated Ethylketocyclazocine with 100 nM DADLE and 100 nM DAGO, 25° C., 40 min, read-out: RECEPTOR BINDING - Ki, k) [µM] | IN VIVO TESTS - ED50, Mouse tail flick [3] | IN VIVO TESTS - ED50, Mouse p-phenylquinone writhing [4]
O=C(Cc1ccc(Cl)c(Cl)c1)N1Cc2ccccc2CC1CN1CCCC1 (racemic) [Example 1, (R,S)-2-(3,4-dichlorophenyl)acetyl-3-(1-pyrrolidinyl)methyl-1,2,3,4-tetrahydroisoquinoline hydrochloride] | 0.96 | 0.00945 | 3.12 | 2.64 | – | – | –
CN(C)C[C@H]1Cc2ccccc2CN1C(=O)Cc1ccc(Cl)c(Cl)c1 [Example 5, (R)-2-(3,4-dichlorophenyl)acetyl-3-dimethylaminomethyl-1,2,3,4-tetrahydroisoquinoline hydrochloride] | 2.56 | – | – | – | 0.637 | N.E. | N.E.
O=C(Cc1ccc(Cl)c(Cl)c1)N1Cc2ccccc2C[C@H]1CN1CCCC1 [Example 3, (S)-2-(3,4-dichlorophenyl)acetyl-3-(1-pyrrolidinyl)methyl-1,2,3,4-tetrahydroisoquinoline hydrochloride] | 0.764 | 0.00803 | 1.58 | 1.43 | – | – | –
CN(C)C[C@@H]1Cc2ccccc2CN1C(=O)Cc1ccc(Cl)c(Cl)c1 [Example 6, (S)-2-(3,4-dichlorophenylacetyl)-3-dimethylaminomethyl-1,2,3,4-tetrahydroisoquinoline hydrochloride] | 1.08 | 0.011 | 1.65 | 2.05 | – | – | –
CN(C)CC1Cc2ccccc2CN1C(=O)Cc1ccc(Cl)c(Cl)c1 (racemic) [Example 4, (R,S)-2-(3,4-dichlorophenylacetyl)-3-dimethylaminomethyl-1,2,3,4-tetrahydroisoquinoline hydrochloride] | 1.36 | 0.0175 | 7.2 | 3.76 | – | – | –
O=C(Cc1ccc(Cl)c(Cl)c1)N1Cc2ccccc2C[C@@H]1CN1CCCC1 [Example 2, (R)-2-(3,4-dichlorophenyl)acetyl-3-(1-pyrrolidinyl)methyl-1-2,3,4-tetrahydroisoquinoline hydrochloride] | 1.42 | > 0.001 | – | – | – | N.E. | N.E.

— patent US4753952A, “2-acyl-3-aminomethyl-1,2,3,4-tetrahydroquinolines” (Dr. Lo. Zambeletti S.p.A., priority 1985, dated 1988)
